Laboratory results as given in US20010053781A1, “Pharmaceutical composition for enhancing cognition” (National Science Council, priority 2000, published 2001).

Legend:
[1] = test system: scopolamine plus mecamylamine-induced acquisition impairment of passive avoidance response in rats; experiment: Passive avoidance task, scopolamine plus mecamylamine-induced acquisition impairment; format: in vivo, rat; conditions: ferulic acid at 50-100 mg/ml (printed), scopolamine and mecamylamine co-administered under the threshold dosage, FIG. 6
Experimental: (§1) Male Sprague-Dawley rats, weighing 200-250 grams, were housed in groups of six with free access to food and water and kept in a regulated environment (23±1° C.), wherein a 12-hour light-dark cycle (08:00-20:00 hours light) was maintained. Each experimental group included 12-18 rats. Rats were trained in a step-through passive avoidance task (Muromachi Kikai Co. Ltd. Japan). The apparatus consisted of two compartments having a steel-rod grid floor (36 parallel steel rods, 0.3 cm in diameter set 1.5 cm apart). One of the compartments (48×20×30 cm) was equipped with a 20 Watt lamp located centrally at a height of 30 cm, and the other was a dark compartment of the same size connected through a guillotine door (5×5 cm). The dark room was used during the experimental sessions that were conducted between 09:00 and 17:00. During the trial training, the guillotine door connecting the light and dark compartment was kept closed. After each rat was placed in the light compartment with its back to the guillotine door, the door was opened and simultaneously the time (step-through latency; STL) taken by the rat to enter the dark compartment was measured with a stopwatch^(14). Once the rat entered the dark compartment, the door was closed. An inescapable scrambled footshock (1.0 mA for 2 sec) was then delivered through the grid floor. […]

[2] = test system: deficit of place learning in the Morris water maze task induced by scopolamine in rats; experiment: Morris water maze test, scopolamine-induced deficit of place learning; format: in vivo, rat; conditions: 50-100 mg/kg ferulic acid i.p., scopolamine 0.3 mg/kg i.p., FIG. 9
Experimental: The water maze apparatus (Columbus Instruments Intl. Co., USA) was used in this Example. The swimming time and track of rats in the water maze were monitored by the Videomex V System and recorded by computer software. The water maze apparatus consisted of a water tank of 180 cm in diameter and 35 cm in height. The water stained as milk-white color was poured into the tank (25 cm in depth, 23±1° C.) before the training trial. The tank was conceptually divided into the 4 quadrants of east, west, south and north on the computer. An acrylic plate of 10 cm in diameter was placed at the north quadrant 1 cm below the water level. Rats were trained 4 times per day as one training course for 5 days. In one training course, each rat swam to the acrylic plate from 4 different quadrants, respectively. 10 seconds after swimming to the acrylic plate, the rat was returned to the home cage. After 30 seconds of rest, the next training session was carried out. The swimming time from the beginning to the acrylic plate was recorded, and an upper cut-off time of 60 seconds was set^(18). Ferulic acid (Sigma) was freshly dissolved in carboxy-methyl cellulose, and administered to rats (50, 100 mg/kg, i.p.) 1 hour before the training trial in combination with the following drug: scopolamine HBr (muscarinic receptor blocker; 0.3 mg/kg, i.p.) 30 minutes before the training trial for inducing acquisition impairment.

[3] = test system: pirenzepine-induced acquisition impairment of passive avoidance response in rats; experiment: Passive avoidance task, pirenzepine-induced acquisition impairment; format: in vivo, rat; conditions: ferulic acid at 50-100 mg/ml (printed), i.p., pirenzepine 1 mg/kg i.p., FIG. 3
Experimental: as §1

[4] = test system: cycloheximide (CXM)-induced memory storage impairment of passive avoidance response in rats; experiment: Passive avoidance task, cycloheximide-induced memory consolidation impairment; format: in vivo, rat; conditions: ferulic acid at 50-100 mg/ml (printed), administered 60 minutes before the training trial, cycloheximide 1.5 mg/kg s.c., FIGS. 4-5
Experimental: as §1

[5] = test system: AF64A-induced impairment of passive avoidance response in rats; experiment: Passive avoidance task, AF64A-induced impairment; format: in vivo, rat; conditions: ferulic acid at 50-100 mg/kg, AF64-A 3 nmol/μl/brain into lateral ventricle 10 days before training, FIG. 8
Experimental: Male Sprague-Dawley rats, weighing 200-250 grams, were housed in groups of six with free access to food and water and kept in a regulated environment (23±1° C.), wherein a 12-hour light-dark cycle (08:00-20:00 hours light) was maintained. Each experimental group included 12-18 rats.
Rats were trained in a step-through passive avoidance task (Muromachi Kikai Co. Ltd. Japan). The apparatus consisted of two compartments having a steel-rod grid floor (36 parallel steel rods, 0.3 cm in diameter set 1.5 cm apart). One of the compartments (48×20×30 cm) was equipped with a 20 Watt lamp located centrally at a height of 30 cm, and the other was a dark compartment of the same size connected through a guillotine door (5×5 cm). […]
During the trial training, the guillotine door connecting the light and dark compartment was kept closed. After each rat was placed in the light compartment with its back to the guillotine door, the door was opened and simultaneously the time (step-through latency; STL) taken by the rat to enter the dark compartment was measured with a stopwatch^(14). […] The rat was once again placed in the light compartment and as in the case of the training trial, the guillotine door was opened and the step-through latency was recorded and used as a measure of retention. […]
The step-through latency of rats in light compartment was recorded according to the method described in Example 1. […]

[6] = test system: mecamylamine-induced acquisition impairment of passive avoidance response in rats; experiment: Passive avoidance task, mecamylamine-induced acquisition impairment; format: in vivo, rat; conditions: ferulic acid at 50-100 mg/ml (printed), i.p. 1 hour before training trial, mecamylamine 10 mg/kg i.p., FIG. 2
Experimental: as §1

[7] = test system: cerebral blood flow rate in rats; experiment: Cerebral blood flow rate by laser Doppler flowmetry; format: in vivo, rat; conditions: 50-100 mg/kg ferulic acid, from 10 to 40 minutes after administration, FIG. 10
Experimental: The cerebral blood flow rate was measured by laser Doppler flowmetry in rats according to the procedure described in Morikawa, E. et al.^(19).

[8] = administered intravenously; reported by Xu et al.; cited from earlier work
[9] = test system: scopolamine (SCOP)-induced acquisition impairment of passive avoidance response in rats; experiment: Passive avoidance task, scopolamine-induced acquisition impairment; format: in vivo, rat; conditions: ferulic acid at 50-100 mg/ml (printed), i.p. 1 hour before training trial, scopolamine 1 mg/kg i.p., FIG. 1
Experimental: as §1

[10] = test system: scopolamine (SCOP)-induced acquisition impairment of passive avoidance response in rats; experiment: Passive avoidance task, scopolamine-induced impairment with peripheral antagonist scopolamine methylbromide; format: in vivo, rat; conditions: FIG. 7
Experimental: as §1

## COc1cc(C=CC(=O)O)ccc1O [ferulic acid, 4-hydroxy-3-methoxycinnamic acid]
[1]
  effect on learning impairment induced by scopolamine plus mecamylamine (passive avoidance): attenuates
[2]
  effect on scopolamine-induced acquisition impairment in a water maze: ameliorates
[3]
  effect on pirenzepine-induced acquisition impairment (step-through latency, passive avoidance): counteracts
[4]
  effect on CXM-induced consolidation impairment (step-through latency, passive avoidance): significantly ameliorates
[5]
  effect on memory impairment induced by AF64A (passive avoidance): counteracts
[6]
  effect on mecamylamine-induced acquisition impairment (step-through latency, passive avoidance): attenuates
[7]
  effect on cerebral blood flow rate: enhances
[8]
  half lethal dose (LD50): 866 ± 29 mg/kg
[9]
  effect on scopolamine-induced acquisition impairment (step-through latency, passive avoidance): attenuates
[10]; ferulic acid 100 mg/kg with scopolamine methylbromide 0.5 mg/kg i.p.
  blocking of the counteracting effects of ferulic acid on scopolamine-induced learning impairment by peripheral cholinergic antagonist scopolamine methylbromide: does not block
[10]; ferulic acid at 100 mg/kg, scopolamine 0.3 mg/kg i.p.
  effect on scopolamine-induced acquisition impairment (passive avoidance): ameliorates
